Measurements from patent publication US20260144796A1, “Compounds and Methods for Improving Health” (Acurx Pharmaceuticals, Inc., priority 2022, published 2026).
Converted amounts (≈) assume the structure as drawn. “Also recorded” adds a separate entry of the source. Where two headings read alike, the source gives them in different places.

Columns and labels:
Enterococcus pseudoavium = test: MIC determination, stool Firmicute isolates; type: cell-based; details: N=1
Enterococcus faecalis = test: MIC determination, stool Firmicute isolates; type: cell-based
[1] = system: C. difficile biofilms (strains R20291, CD 630); test: C. difficile in vitro biofilm studies (MIC, MBIC, CFU/mL, Crystal Violet biomass); type: cell-based
Protocol: A basic flow chart outlining the experimental procedure used in these studies may be seen in FIG. 14. Briefly, C. difficile laboratory strain R20291 was grown in Brain heart infusion-supplemented (BHIS) medium. […] Biofilm formation was established via anaerobic incubation of the cultures at 37° C. for 24 hrs. Early biofilm formation was established at 4 hrs, whereas late biofilm formation was established at 24 hrs, 48 hrs, and 72 hrs. Following biofilm formation, the BHIS medium was removed and replaced with fresh media comprising no antibiotic (control), ibezapolstat (IBZ), Fidaxomicin (FDX), or metronidazole (MTZ). The cultures were then anaerobically incubated for 24 hrs or subjected to time course tests. Biofilm biomass was measured using Crystal Violet staining. […] Data was measured and recorded using Cytation 3 calibrated to read at A570. Data was analyzed by comparing percent growth of antibiotic treated cultures with controls.

[2] = system: Lachnoclostridium pacaense; test: MIC determination, stool Firmicute isolates; type: cell-based; details: Clostridium pacaense, N=1
[3] = system: flagellar genes fliA, flgB, fliC in C. difficile strain CD 630; test: Flagellar gene expression by qRT-PCR
Clostridium subterminale = test: MIC determination, stool Firmicute isolates; type: cell-based; details: N=1
[4] = system: C. difficile toxin A and B; test: Toxin production by ELISA; type: cell-based; details: for reduction of toxin levels (toxin A and B), normalized to controls: sub-inhibitory concentrations, 24 h
Protocol: Toxin production was assessed by ELISA (tgcBiomics) according to the manufacturer instructions.

Melissococcus plutonius = test: MIC determination, stool Firmicute isolates; type: cell-based; details: N=1
[5] = system: C. difficile CD 630 and R20291 cell morphology; test: Morphology assessment by bright field microscopy; type: cell-based; details: sub-inhibitory to MIC, 24 hours, listed as IBZ
Protocol: Cultures were then incubated in an anaerobic chamber at 37° C. in for 24 hrs. Pre-cultures were diluted to approximately 10^6CFU/mL (1:100) in fresh BHI comprising 0.25×MIC (0.5 ug/mL) of the appropriate antibiotic. Following incubation for 24 hrs, EVOS imaging system (Thermofisher) was used to take bright field pictures at 40× magnification.

gut microbiome = test: Germ-free humanized mouse study, 16S rRNA gut microbiome analysis; type: in vivo; details: humanized germ-free mice; for proportional change of Bacteroidetes (in words): phylum level
Description: Germ-free (GF) mice (six per group) were randomly assigned to IBZ, VAN, FDX, MTZ, or control groups.
An oral gavage of healthy human-derived fecal slurry was given to GF mice. The humanized mice were housed in a sterile biological safety cabinet (BSC) for one week to allow the donor gut microbiome to establish. Humanized mice were then moved to sterile, micro-isolator cages and pellet chow diet was exchanged for a powder chow diet. The humanized mice were then allowed one week to acclimate to the powder chow diet. In addition, a stool sample was obtained prior to the change in diet (baseline 1). At day 14, once the mice acclimated to the powder chow diet, a second baseline stool sample was obtained (baseline 2) and antibiotic treatment was started. The appropriate antibiotics were added to the powder chow diet for 10 days. At day 16, two days after beginning antibiotic treatment, another stool sample was collected (ABX-1). During the 10-day antibiotic treatment, powder chow dishes were refilled each day with fresh chow containing the randomly assigned antibiotic. Stool samples were again collected at day 24 (ABX-2).
To assess antibiotic microbiome effect, 16S rRNA metagenomics was used on stool samples that were collected at day 0 (baseline 1 and baseline 2) and after 2 and […] of treatment with antibiotics. Bulk DNA was extracted from stool samples using the DNeasy® PowerSoil® Kit. The V4 region of the bacterial 16S rRNA gene was sequenced using the Illumina MiSeq and CLC Genomics Workbench. Raw sequencing reads were processed and curated using the mothur (v.1.48.0) software package and the mothur MiSeq SOP was followed as outlined in Schloss, P. D., et al., Introducing mothur: open-source, platform-independent, community supported software for describing and comparing microbial communities. Appl Environ Microbiol, 2009. 75(23): p. 7537-41 (see also, Kozich, J. J., et al., Development of a dual-index sequencing strategy and curation pipeline for analyzing amplicon sequence data on the MiSeq Illumina sequencing platform. Appl Environ Microbiol, 2013. 79(17): p. 5112-20.). All data visualization and statistical analysis were performed using R studio (R Core Team (2023). R: A Language and Environment for Statistical Computing, Vienna, Austria.).

[6] = system: representative Actinobacteria (Bifidobacteriaceae and Coriobacteriaceae); test: MIC, isolated gut microbiota species: Actinobacteria; type: cell-based; details: inactive
Protocol: Strains plated onto blood agar (Hardy Diagnostics) with a 24-hour incubation at 37° C. in an anaerobic environment (Coy vinyl anaerobic chamber). After incubation, 3-5 well-isolated colonies were suspended into 5 mL of BHI broth (Criterion Media). The cultures were incubated in an anaerobic chamber for 24 hours to achieve a 0.5 McFarland Standard. […] Plates were allowed to dry in a sterile location. After drying, the plates were covered with foil to prevent any photo-damage to the hemin and placed in the anaerobic chamber for 1 hour to reduce the media. The broth culture was then spotted onto the plates and covered with foil. Plates were allowed to dry completely before inverting them for incubation for 48 hours. Plates were analyzed and MIC recorded.

[7] = antibiotic in powder chow 10 days
[8] = antibiotic in powder chow 10 days, compared to Baseline 2 (D14)

O=c1[nH]c(NCc2ccc(Cl)c(Cl)c2)nc2ncn(CCN3CCOCC3)c12 [Ibezapolstat, 2-((3,4-dichlorobenzyl)amino)-7-(2-morpholinoethyl)-1,7-dihydro-6H-purin-6-one]
MIC50 (Enterococcus pseudoavium): 100 µg/mL (≈ 236 µM) | MIC50 (Enterococcus faecalis): 12.5 µg/mL (≈ 29.5 µM) | MIC (Enterococcus faecalis; N=5, read-out: MIC Max): 50 µg/mL (≈ 118 µM) | MIC (Enterococcus faecalis; read-out: MIC Min): 12.5 µg/mL (≈ 29.5 µM) | C. diff growth (CFU/mL) and biomass at sub-MIC compared to control ([1]; 0.4× MIC): reduced | growth in early biofilms at supra-MIC ([1]; 40× MIC, after 48 hours of treatment): eradicated growth | MBIC ([1]; C. diff. strain R20291, Minimum Biofilm Inhibitory Concentration): 4 µg/mL | MIC ([1]; Clostridioides difficile, C. diff. strain R20291, read-out: MIC): 4 µg/mL (≈ 9.45 µM) | MIC50 [2]: 25 µg/mL (≈ 59.1 µM) | reduction in motility and flagellar genes ([3]; 4-hour treatment with 0.25×MIC): up to 50% | flgB expression decreased versus non-treated control ([3]; CD 630, 0.5×MIC, 4 hours): about 30% | fliA expression attenuated versus non-treated control ([3]; CD 630, 0.5×MIC, 4 hours): about 60% | fliC expression decreased versus non-treated control ([3]; CD 630, 0.5×MIC, 4 hours): about 80% | decrease overall in flagellar gene expression ([3]; CD 630, sub-MIC (0.5×MIC), 4 hours, gluD control): 2-to-5 fold | MIC50 (Clostridium subterminale): 1 µg/mL (≈ 2.36 µM) | total toxin A and B production ([4]; strain CD 630, 24 hours of treatment): decreases total toxin A and B production in strain CD 630 in a dose-dependent manner | reduction of toxin levels (toxin A and B), normalized to controls ([4]; strain CD 630): 55% | reduction of toxin levels (toxin A and B), normalized to controls ([4]; strain R20291): 60% | MIC50 (Melissococcus plutonius): 6.25 µg/mL (≈ 14.8 µM) | cell morphology [5]: elongated cell phenotype; also recorded: dose-dependent effect on C. difficile cell length | proportional change of Bacteroidetes (in words) (gut microbiome): proportional increases | proportional change of Bacteroidetes (in words) (gut microbiome; listed as IBZ): significant proportional increase | Average Change in Metric ± SD, Bray-Curtis Dissim. to Baseline 1 (gut microbiome; [7]): 0.81 ± 0.02 | Average Change in Metric ± SD, Bray-Curtis Dissim. to Baseline 2 (gut microbiome; [7]): 0.68 ± 0.03 | Avg. Change in Relative Abundance ± SD, Actinobacteria (gut microbiome; [8]): 0.02% ± 0.08% | Avg. Change in Relative Abundance ± SD, Bacteroidetes (gut microbiome; [8]): 34% ± 2.96% | Avg. Change in Relative Abundance ± SD, Proteobacteria (gut microbiome; [8]): 9.7% ± 3.12% | MIC [6]: > 64 µg/mL
